Test results published in US11744818B2, “Application of trans-1,3-dilinolein in the preparation of medicaments for treating gastric cancer, stomachic tonic, health products and foods” (Lanzhou University, priority 2021, dated 2023).

Key:
[1] = test system: human gastric mucosal epithelial cell line GES-1; test: Proliferation of GES-1 cells (CCK8, 48 hours); format: cell-based; conditions: for effect on the proliferation of GES-1: 25 μM to 400 μm, 48 hours
Description: (§1) At 37° C. and 5% CO2, human gastric cancer cell line HGC-27 cells and human gastric mucosal epithelial cell line GES-1 cells (coming from China Center for Type Culture Collection (Wuhan, China)) are respectively cultured in RPMI Medium Modified (Hyclone, SH30809.01) and Dulbecco's Modified Eagle's Medium-high glucose (Sigma, D6429), in which 10% fetal calf serum (Gibco, 10270-106) and 1% penicillin-streptomycin (Gibco, 15140-122) are supplemented.
The cytotoxicity of GES-1 cells by trans-1,3-dilinolein is determined. 10000 cells are plated in a 96-well plate, and each well is added with 100 μL medium. 12 hours after cell attachment, each well is given 100 μL normal medium that contained different concentrations (0 μM, 6.25 μM, 12.5 μM, 25 μM, 50 μM, 100 μM, 200 μM, 400 μM, 800 μM, 1000 μM) of trans-1,3-dilinolein and had been preheated, and cultured in incubators under the conditions of 5% CO2, 37° C., normal oxygen and 1% oxygen respectively for 48 hours. The medium in each well is drawn, and serum-free medium is added into each well to formulate 60 μL CCK8 (ABMole BioScience) at 1/11 the initial concentration, which are correspondingly incubated in incubators under the conditions of 5% CO2, 37° C., normal oxygen and 1% oxygen for 40 minutes. The absorbance at 450 nm is determined with a microplate reader (Thermo Scientific).
(§2) Two-side Student's t-test is conducted by using EXCEL to determine the statistical significance of two groups of measurements. P value<0.05 is considered to be statistically significant. Unless otherwise specified, all data are expressed as mean ±standard deviation.

[2] = test system: human gastric cancer cell line HGC-27; test: Cytotoxicity to HGC-27 cells (MTS, 48 hours); format: cell-based; conditions: for killing of gastric cancer cells: concentration of 300 μm and more; for killing effect on HGC-27: 0-500 μM, 48 hours
Description: as §1
The cytotoxicity of HGC-27 cells by trans-1,3-dilinolein is determined. 5000 cells are plated in a 96-well plate, and each well is added with 100 μL medium. 12 hours after cell attachment, each well is given 100 μL normal medium that contained different concentrations (0 μM, 50 μM, 100 μM, 200 μM, 300 μM, 400 μM, 500 μM) of trans-1,3-dilinolein and had been preheated, and cultured in incubators under the conditions of 5% CO2, 37° C., normal oxygen and 1% oxygen respectively for 48 hours. The medium in each well is drawn, and serum-free medium is added into each well to formulate 60 μL MTS (Promega) at ⅙ the initial concentration, which are correspondingly incubated in incubators under the conditions of 5% CO2, 37° C., normal oxygen and 1% oxygen for 2 hours. The absorbance at 490 nm is determined with a microplate reader (Thermo Scientific).
as §2

In the case of CCCCC/C=C/C/C=C/CCCCCCCC(=O)OCC(O)COC(=O)CCCCCCC/C=C/C/C=C/CCCCC [trans-1,3-dilinolein, [2-hydroxy-3-[(9E,12E)-octadeca-9,12-dienoyl]oxypropyl](9E,12E)-octadeca-9,12-dienoate], the “proliferation of normal gastric mucosal epithelial cells” value ([1]; concentration of 300 μm and more) was “significantly promote the proliferation”, the “effect on the proliferation of GES-1” value ([1]; hypoxic (1% oxygen), FIG. 4B) was “promotion effects on the proliferation” and the “effect on the proliferation of GES-1” value ([1]; normal oxygen, FIG. 4A) was “promotion effects on the proliferation”. The “killing of gastric cancer cells” value ([2]; hypoxic conditions compared with normal oxygen) was “the killing effect is more significant”, the “killing of gastric cancer cells” value ([2]; normal oxygen) was “kills gastric cancer cells significantly” and the “killing effect on HGC-27” value ([2]; hypoxic (1% oxygen) compared with normal oxygen, FIG. 4D) was “stronger killing effect”. The “killing effect on HGC-27” value ([2]; normal oxygen, FIG. 4C) was “concentration-dependent killing effect”.
